biological target: T1, human 5-HT4(b) receptor (Homo sapiens, UniProt Q13639); test: 5-HT4(b) agonist assay (cAMP accumulation); format: cell-based; conditions: CHO-K1 cells overexpressing full-length human 5-HT4(b) receptor; cAMP accumulation after 30 minutes at room temperature; 1 μM 5-HT as 100% activity
T1 construct: overexpressing the full-length human 5-HT4(b) receptor with an N-terminal FLAG tag; FLAG (N); host or cells: CHO-K1
Experimental: One may determine the activity of the compounds of Formula 1 using a variety of methods, including in vitro and in vivo methods. The ability of the example compounds to activate the 5-HT4(b) receptor may be determined using the following assay.
Chinese hamster ovary (CHO-K1) cells overexpressing the full-length human 5-HT4(b) receptor with an N-terminal FLAG tag (Multispan Inc, Hayward, CA) are cultured per the manufacturer's protocol in 1:1 DMEM/F12 (Thermo Fisher, Waltham, MA) with 10% fetal bovine serum (GE Healthcare, Pittsburgh, PA) and 10 μg/mL puromycin (Thermo Fisher, Waltham, MA), and stored in frozen aliquots to be used as assay ready cells. On the day of the assay, cells are removed from frozen storage, washed two times in 1× Kreb's Ringer Buffer (Zenbio, Research Triangle Park, NC), and re-suspended to a concentration of 4×10^6 cells/mL in 1× Kreb's Ringer Buffer. Test compound (50 nL) in 100% DMSO is acoustically dispensed in low volume, white, 384-well polypropylene plates (Corning, Tewksbury, MA), followed by the addition of 4×10^4 cells per well in a total volume of 10 μL. Cells are incubated with test compound for 30 minutes at room temperature in the dark, and cAMP accumulation is measured using the Cisbio HiRange cAMP assay kit (Bedford, MA) per the manufacturer's protocol. Anti-cAMP antibody and d2-cAMP tracer reagents diluted in lysis/detection buffer are incubated in the dark for 1 hour, and results are measured on a Pherastar plate reader (BMG Labtech, Ortenberg, Germany). Data are normalized using 1 μM 5-HT (Sigma Aldrich, St. Louis, MO) as 100% activity, and DMSO alone as 0% activity.
The ability of the example compounds to activate the 5-HT4(b) receptor was evaluated using the assay described in the Biological Activity section. Table 1, below, lists EC50 from the 5-HT4(b) agonist assay for each of the example compounds, where smaller EC50 values represent higher potency.

T1 sequence (Q13639 whole entry): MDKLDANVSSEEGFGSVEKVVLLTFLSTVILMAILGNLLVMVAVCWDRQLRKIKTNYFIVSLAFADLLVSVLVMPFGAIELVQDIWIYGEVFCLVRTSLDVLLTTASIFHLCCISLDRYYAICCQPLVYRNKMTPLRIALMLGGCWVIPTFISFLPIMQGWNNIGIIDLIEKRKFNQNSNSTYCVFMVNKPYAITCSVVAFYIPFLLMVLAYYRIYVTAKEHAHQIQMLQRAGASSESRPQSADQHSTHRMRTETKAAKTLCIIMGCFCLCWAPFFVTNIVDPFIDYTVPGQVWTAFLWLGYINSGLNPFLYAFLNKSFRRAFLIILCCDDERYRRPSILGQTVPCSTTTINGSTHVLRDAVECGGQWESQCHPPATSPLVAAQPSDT

EC50 [nM] | SMILES
21.4 | COc1cc(N)c(Cl)cc1C(=O)N[C@@H]1CCN(CCCCCC(=O)NCCCCCCCC(=O)NC[C@H](O)[C@@H](O)[C@H](O)[C@H](O)CO)C[C@@H]1OC [Example 2, 4-amino-5-chloro-2-methoxy-N-((3S,4R)-3-methoxy-1-(6-oxo-6-((8-oxo-8-(((2S,3R,4R,5R)-2,3,4,5,6-pentahydroxyhexyl)amino)octyl)amino)hexyl)piperidin-4-yl)benzamide]
22.3 | COc1cc(N)c(Cl)cc1C(=O)N[C@@H]1CCN(CCCCCC(=O)NCCCCCC(=O)NC[C@H](O)[C@@H](O)[C@H](O)[C@H](O)CO)C[C@@H]1OC [Example 3, 4-amino-5-chloro-2-methoxy-N-((3S,4R)-3-methoxy-1-(6-oxo-6-((6-oxo-6-(((2S,3R,4R,5R)-2,3,4,5,6-pentahydroxyhexyl)amino)hexyl)amino)hexyl)piperidinyl)benzamide]
28.6 | COc1cc(N)c(Cl)cc1C(=O)N[C@@H]1CCN(CCCCCC(=O)NCCCC(=O)NC[C@H](O)[C@@H](O)[C@H](O)[C@H](O)CO)C[C@@H]1OC [Example 4, 4-amino-5-chloro-2-methoxy-N-((3S,4R)-3-methoxy-1-(6-oxo-6-((4-oxo-4-(((2S,3R,4R,5R)-2,3,4,5,6-pentahydroxyhexyl)amino)butyl)amino)hexyl)piperidin-4-yl)benzamide]
13.2 | COc1cc(N)c(Cl)cc1C(=O)N[C@@H]1CCN(CCCCCC(=O)NCC(=O)NC[C@H](O)[C@@H](O)[C@H](O)[C@H](O)CO)C[C@@H]1OC [Example 5, 4-amino-5-chloro-2-methoxy-N-((3S,4R)-3-methoxy-1-(6-oxo-6-((2-oxo-2-(((2S,3R,4R,5R)-2,3,4,5,6-pentahydroxyhexyl)amino)ethyl)amino)hexyl)piperidin-4-yl)benzamide]
23.4 | COc1cc(N)c(Cl)cc1C(=O)N[C@@H]1CCN(CCCCCC(=O)NCCOCCOCCC(=O)NC[C@H](O)[C@@H](O)[C@H](O)[C@H](O)CO)C[C@@H]1OC [Example 7, 4-amino-5-chloro-2-methoxy-N-((3S,4R)-3-methoxy-1-((19S,20R,21R,22R)-19,20,21,22,23-pentahydroxy-6,16-dioxo-10,13-dioxa-7,17-diazatricosyl)piperidin-4-yl)benzamide]
43.3 | COc1cc(N)c(Cl)cc1C(=O)N[C@@H]1CCN(CCCCCC(=O)N(C)CCCCCCCC(=O)NC[C@H](O)[C@@H](O)[C@H](O)[C@H](O)CO)C[C@@H]1OC [Example 16, 4-amino-5-chloro-2-methoxy-N-((3S,4R)-3-methoxy-1-(6-(methyl(8-oxo-8-(((2S,3R,4R,5R)-2,3,4,5,6-pentahydroxyhexyl)amino)octyl)amino)-6-oxohexyl)piperidin-4-yl)benzamide]
202 | COc1cc(N)c(Cl)cc1C(=O)N[C@@H]1CCN(CCOCCC(=O)NCCCCCCCC(=O)NC[C@H](O)[C@@H](O)[C@H](O)[C@H](O)CO)C[C@@H]1OC [Example 17, 4-amino-5-chloro-2-methoxy-N-((3S,4R)-3-methoxy-1-(2-(3-oxo ((8-oxo-8-(((2S,3R,4R,5R)-2,3,4,5,6-pentahydroxyhexyl)amino)octyl)amino)propoxy)ethyl)piperidin-4-yl)benzamide]
150 | COc1cc(N)c(Cl)cc1C(=O)N[C@@H]1CCN(C(C)CCCCC(=O)NCCCCCCCC(=O)NC[C@H](O)[C@@H](O)[C@H](O)[C@H](O)CO)C[C@@H]1OC (stereo partly drawn) [Example 18, 4-amino-5-chloro-2-methoxy-N-((3S,4R)-3-methoxy-1-(7-oxo-7-((8-oxo-8-(((2S,3R,4R,5R)-2,3,4,5,6-pentahydroxyhexyl)amino)octyl)amino)heptan-2-yl)piperidin-4-yl)benzamide]

Second part, the compound before the results:

SMILES | EC50 [nM]
COc1cc(N)c(Cl)cc1C(=O)N[C@@H]1CCN(CCCCCC(=O)NC[C@H](O)[C@@H](O)[C@H](O)[C@H](O)CO)C[C@@H]1OC [Example 1, 4-amino-5-chloro-2-methoxy-N-((3S,4R)-3-methoxy-1-(6-oxo-6-(((2S,3R,4R,5R)-2,3,4,5,6-pentahydroxyhexyl)amino)hexyl)piperidin-4-yl)benzamide] | 19.8
COc1cc(N)c(Cl)cc1C(=O)N[C@@H]1CCN(CCCCCC(=O)NCCOCCOCCOCCC(=O)NC[C@H](O)[C@@H](O)[C@H](O)[C@H](O)CO)C[C@@H]1OC [Example 6, 4-amino-5-chloro-2-methoxy-N-((3S,4R)-3-methoxy-1-((22S,23R,24R,25R)-22,23,24,25,26-pentahydroxy-6,19-dioxo-10,13,16-trioxa-7,20-diazahexacosyl)piperidin-4-yl)benzamide] | 22.2
COc1cc(N)c(Cl)cc1C(=O)N[C@@H]1CCN(CCCCCC(=O)NC2CCN(CCCCCCCC(=O)NC[C@H](O)[C@@H](O)[C@H](O)[C@H](O)CO)CC2)C[C@@H]1OC [Example 8, 4-amino-5-chloro-2-methoxy-N-((3S,4R)-3-methoxy-1-(6-oxo-6-((1-(8-oxo-8-(((2S,3R,4R,5R)-2,3,4,5,6-pentahydroxyhexyl)amino)octyl)piperidin-4-yl)amino)hexyl)piperidin-4-yl)benzamide] | 9.6
COc1cc(N)c(Cl)cc1C(=O)N[C@@H]1CCN(CCCCCC(=O)NC2CCN(CCCCCC(=O)NC[C@H](O)[C@@H](O)[C@H](O)[C@H](O)CO)CC2)C[C@@H]1OC [Example 9, 4-amino-5-chloro-2-methoxy-N-((3S,4R)-3-methoxy-1-(6-oxo-6-((1-(6-oxo-6-(((2S,3R,4R,5R)-2,3,4,5,6-pentahydroxyhexyl)amino)hexyl)piperidinyl)amino)hexyl)piperidin-4-yl)benzamide] | 8.1
COc1cc(N)c(Cl)cc1C(=O)N[C@@H]1CCN(CCCCCC(=O)N(C)C2CCN(CCCCCCCC(=O)NC[C@H](O)[C@@H](O)[C@H](O)[C@H](O)CO)CC2)C[C@@H]1OC [Example 10, 4-amino-5-chloro-2-methoxy-N-((3S,4R)-3-methoxy-1-(6-(methyl(1-(8-oxo-8-(((2S,3R,4R,5R)-2,3,4,5,6-pentahydroxyhexyl)amino)octyl)piperidin-4-yl)amino)-6-oxohexyl)piperidin-4-yl)benzamide] | 26.1
COc1cc(N)c(Cl)cc1C(=O)N[C@@H]1CCN(CCCCCC(=O)N(C)C2CCN(CCCCCC(=O)NC[C@H](O)[C@@H](O)[C@H](O)[C@H](O)CO)CC2)C[C@@H]1OC [Example 11, 4-amino-5-chloro-2-methoxy-N-((3S,4R)-3-methoxy-1-(6-(methyl(1-(6-oxo-6-(((2S,3R,4R,5R)-2,3,4,5,6-pentahydroxyhexyl)amino)hexyl)piperidinyl)amino)-6-oxohexyl)piperidin-4-yl)benzamide] | 14.2
COc1cc(N)c(Cl)cc1C(=O)N[C@@H]1CCN(CCCCCC(=O)N[C@@H]2CCCN(CCCCCCCC(=O)NC[C@H](O)[C@@H](O)[C@H](O)[C@H](O)CO)C2)C[C@@H]1OC [Example 12, 4-amino-5-chloro-2-methoxy-N-((3S,4R)-3-methoxy-1-(6-oxo-6-(((R)-1-(8-oxo-8-(((2S,3R,4R,5R)-2,3,4,5,6-pentahydroxyhexyl)amino)octyl)piperidin-3-yl)amino)hexyl)piperidin-4-yl)benzamide] | 14.6
COc1cc(N)c(Cl)cc1C(=O)N[C@@H]1CCN(CCCCCC(=O)N[C@@H]2CCCN(CCCCCC(=O)NC[C@H](O)[C@@H](O)[C@H](O)[C@H](O)CO)C2)C[C@@H]1OC [Example 13, 4-amino-5-chloro-2-methoxy-N-((3S,4R)-3-methoxy-1-(6-oxo-6-(((R)-1-(6-oxo-6-(((2S,3R,4R,5R)-2,3,4,5,6-pentahydroxyhexyl)amino)hexyl)piperidin-3-yl)amino)hexyl)piperidin-4-yl)benzamide] | 12.9
COc1cc(N)c(Cl)cc1C(=O)N[C@@H]1CCN(CCCCCC(=O)N(C)[C@@H]2CCCN(CCCCCCCC(=O)NC[C@H](O)[C@@H](O)[C@H](O)[C@H](O)CO)C2)C[C@@H]1OC [Example 14, 4-amino-5-chloro-2-methoxy-N-((3S,4R)-3-methoxy-1-(6-(methyl((R)-1-(8-oxo-8-(((2S,3R,4R,5R)-2,3,4,5,6-pentahydroxyhexyl)amino)octyl)piperidin-3-yl)amino)-6-oxohexyl)piperidin-4-yl)benzamide] | 16.8
COc1cc(N)c(Cl)cc1C(=O)N[C@@H]1CCN(CCCCCC(=O)N(C)[C@@H]2CCCN(CCCCCC(=O)NC[C@H](O)[C@@H](O)[C@H](O)[C@H](O)CO)C2)C[C@@H]1OC [Example 15, 4-amino-5-chloro-2-methoxy-N-((3S,4R)-3-methoxy-1-(6-(methyl((R)-1-(6-oxo-6-(((2S,3R,4R,5R)-2,3,4,5,6-pentahydroxyhexyl)amino)hexyl)piperidin-3-yl)amino)-6-oxohexyl)piperidin-4-yl)benzamide] | 31

Source: patent US12653815B2, “Luminally-acting N-(piperidin-4-yl)benzamide derivatives” (Takeda Pharmaceutical Company Limited, priority 2020, dated 2026)
